For one assay, the target named is LIMK1 (Homo sapiens (Human), UniProt P53667). Description: Lanthascreen Eu binding assay (TR-FRET), inhibition of LIMK1. In general terms: Time-resolved FRET reads energy transfer from a long-lived donor to a nearby acceptor.
The next assay concerns the target LIMK2 (Homo sapiens (Human), UniProt P53671). Description: Lanthascreen Eu binding assay (TR-FRET), inhibition of LIMK2.
For another assay, the target named is ROCK1 (Homo sapiens (Human), UniProt Q13464). In words: Z'Lyte assay, ROCK1 inhibition at a single concentration. The assay is classed as biochemical.
The target of a further assay is ROCK2 (Homo sapiens (Human), UniProt O75116). Description: Z'Lyte assay, ROCK2 inhibition at a single concentration. The assay is classed as biochemical.
The test system of assay [1] is cofilin phosphorylation, HeLa cells. In words: Cofilin phosphorylation by Western Blot (anti-phospho-Ser3-cofilin) in HeLa cells. Particulars: for inhibition at 25 µM: Homo sapiens; for inhibition at 25 µM / % inhibition Cofilin phosphorylation HeLa cells treated 2 h with 25 uM of inhibitor: 2 h. The assay is classed as cell-based. In general terms: In western blotting, separated proteins are transferred to a membrane and probed.

The subject of assay [2] is cofilin phosphorylation, MPNST88-14 cells. Description: Cofilin phosphorylation by Western Blot in MPNST88-14 cells. The assay is classed as cell-based.
Assay [3] relates to cofilin phosphorylation, MPNST90-8 cells. In words: Cofilin phosphorylation by Western Blot in MPNST90-8 cells. In kind it is cell-based. Particulars: for inhibition at 25 µM: read-out: % inhibition Cofilin phosphorylation MPNST90-8 cells treated 2 h with 25 uM of inhibitor, MPNST90-8 cells, 25 uM.
Where [4] appears, read: read-out: % inhibition (ROCK1) 1 uM, 1 uM.
The mark [5] stands for this setting: read-out: % inhibition (ROCK2) 1 uM, 1 uM.
Setting [6] is: HeLa, read-out: % inhibition of cofilin phosphorylation in HeLa cells (treatment 2 h, at 25 μM), Table 2, normalized to the control condition DMSO.
Where [7] appears, read: read-out: % inhibition Cofilin phosphorylation HeLa cells treated 2 h with 25 uM of inhibitor, HeLa cells, 25 uM.
The mark [8] stands for this setting: read-out: % inhibition Cofilin phosphorylation MPNST88-14 cells treated 2 h with 25 uM of inhibitor, MPNST88-14 cells, 25 uM.
[9] abbreviates: read-out: % inhibition (ROCK1) 1 uM.
The mark [10] stands for this setting: read-out: % inhibition (ROCK2) 1 uM.
Where [11] appears, read: HeLa, read-out: % inhibition Cofilin phosphorylation HeLa cells treated 2 h with 25 uM of inhibitor.
The mark [12] stands for this setting: HeLa, read-out: % inhibition of cofilin phosphorylation in HeLa cells (treatment 2 h, at 25 μM).
[13] abbreviates: 2 h, read-out: % inhibition Cofilin phosphorylation MPNST88-14 cells treated 2 h with 25 uM of inhibitor.
[14] abbreviates: Table 2, normalized to the control condition DMSO.

Like-named read-outs stand apart in the source and are kept apart here.

The values below come from US20230312576A1, “4-(7H-PYRROLO[2,3-D]PYRIMIDIN-4-YL)-3,6-DIHYDROPYRIDINE-1-(2H)-CARBOXAMIDE DERIVATIVES AS LIMK AND/OR ROCK KINASES INHIBITORS FOR USE IN THE TREATMENT OF CANCER” (CENTRE NATIONAL DE LA RECHERCHE SCIENTIFIQUE, priority 2020, published 2023).

LIMK2, sequence (P53671 whole entry): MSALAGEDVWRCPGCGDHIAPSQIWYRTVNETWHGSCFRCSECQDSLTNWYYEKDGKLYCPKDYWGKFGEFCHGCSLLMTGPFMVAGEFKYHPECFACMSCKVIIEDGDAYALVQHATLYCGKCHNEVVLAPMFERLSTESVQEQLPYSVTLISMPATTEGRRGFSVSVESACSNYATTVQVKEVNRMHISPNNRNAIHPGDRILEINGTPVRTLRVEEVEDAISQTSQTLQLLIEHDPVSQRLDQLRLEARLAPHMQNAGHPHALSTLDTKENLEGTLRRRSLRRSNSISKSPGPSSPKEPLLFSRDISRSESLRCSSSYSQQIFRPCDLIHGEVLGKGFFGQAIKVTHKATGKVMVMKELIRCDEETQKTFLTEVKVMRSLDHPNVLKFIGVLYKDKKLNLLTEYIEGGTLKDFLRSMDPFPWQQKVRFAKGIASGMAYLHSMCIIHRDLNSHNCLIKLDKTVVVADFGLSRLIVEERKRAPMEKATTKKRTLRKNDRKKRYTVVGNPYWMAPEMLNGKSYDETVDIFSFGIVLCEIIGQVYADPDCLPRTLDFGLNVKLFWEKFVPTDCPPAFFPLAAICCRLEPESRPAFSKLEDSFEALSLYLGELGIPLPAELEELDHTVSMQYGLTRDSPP
ROCK2, sequence (O75116 whole entry): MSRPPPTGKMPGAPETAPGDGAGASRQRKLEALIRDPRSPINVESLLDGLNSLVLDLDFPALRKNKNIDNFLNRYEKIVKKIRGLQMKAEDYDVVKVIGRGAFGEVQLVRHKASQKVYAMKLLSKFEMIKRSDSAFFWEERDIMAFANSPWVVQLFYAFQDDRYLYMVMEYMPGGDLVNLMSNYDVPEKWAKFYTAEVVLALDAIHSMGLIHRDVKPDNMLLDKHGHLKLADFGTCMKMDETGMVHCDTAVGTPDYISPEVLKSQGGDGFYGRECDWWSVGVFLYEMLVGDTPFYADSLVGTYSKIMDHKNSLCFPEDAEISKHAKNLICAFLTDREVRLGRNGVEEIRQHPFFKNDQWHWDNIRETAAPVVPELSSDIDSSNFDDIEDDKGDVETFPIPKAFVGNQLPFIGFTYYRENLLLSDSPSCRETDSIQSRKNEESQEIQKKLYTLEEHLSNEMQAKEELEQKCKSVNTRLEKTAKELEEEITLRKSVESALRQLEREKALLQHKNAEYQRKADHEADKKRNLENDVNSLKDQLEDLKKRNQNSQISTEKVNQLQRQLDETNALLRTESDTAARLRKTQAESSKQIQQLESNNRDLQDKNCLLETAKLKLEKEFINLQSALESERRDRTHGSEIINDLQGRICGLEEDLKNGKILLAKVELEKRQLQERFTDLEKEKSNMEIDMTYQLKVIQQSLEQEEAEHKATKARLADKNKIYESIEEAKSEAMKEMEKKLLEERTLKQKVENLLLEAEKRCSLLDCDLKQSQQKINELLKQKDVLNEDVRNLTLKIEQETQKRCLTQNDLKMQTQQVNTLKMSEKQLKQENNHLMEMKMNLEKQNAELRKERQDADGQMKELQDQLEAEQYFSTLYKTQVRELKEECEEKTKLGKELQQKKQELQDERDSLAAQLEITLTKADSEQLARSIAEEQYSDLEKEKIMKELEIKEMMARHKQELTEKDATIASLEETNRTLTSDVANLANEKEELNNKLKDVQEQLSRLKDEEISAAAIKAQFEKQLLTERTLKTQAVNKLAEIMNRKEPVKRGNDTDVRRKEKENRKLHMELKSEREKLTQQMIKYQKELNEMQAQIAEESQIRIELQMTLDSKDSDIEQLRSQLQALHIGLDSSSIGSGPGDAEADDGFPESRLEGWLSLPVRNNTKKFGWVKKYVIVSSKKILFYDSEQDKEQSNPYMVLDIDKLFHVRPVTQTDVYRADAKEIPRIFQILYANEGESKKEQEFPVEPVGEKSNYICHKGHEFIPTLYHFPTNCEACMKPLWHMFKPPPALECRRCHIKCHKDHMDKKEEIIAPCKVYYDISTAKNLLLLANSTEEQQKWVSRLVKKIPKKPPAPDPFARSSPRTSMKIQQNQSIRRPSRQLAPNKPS
ROCK1, sequence (Q13464 whole entry): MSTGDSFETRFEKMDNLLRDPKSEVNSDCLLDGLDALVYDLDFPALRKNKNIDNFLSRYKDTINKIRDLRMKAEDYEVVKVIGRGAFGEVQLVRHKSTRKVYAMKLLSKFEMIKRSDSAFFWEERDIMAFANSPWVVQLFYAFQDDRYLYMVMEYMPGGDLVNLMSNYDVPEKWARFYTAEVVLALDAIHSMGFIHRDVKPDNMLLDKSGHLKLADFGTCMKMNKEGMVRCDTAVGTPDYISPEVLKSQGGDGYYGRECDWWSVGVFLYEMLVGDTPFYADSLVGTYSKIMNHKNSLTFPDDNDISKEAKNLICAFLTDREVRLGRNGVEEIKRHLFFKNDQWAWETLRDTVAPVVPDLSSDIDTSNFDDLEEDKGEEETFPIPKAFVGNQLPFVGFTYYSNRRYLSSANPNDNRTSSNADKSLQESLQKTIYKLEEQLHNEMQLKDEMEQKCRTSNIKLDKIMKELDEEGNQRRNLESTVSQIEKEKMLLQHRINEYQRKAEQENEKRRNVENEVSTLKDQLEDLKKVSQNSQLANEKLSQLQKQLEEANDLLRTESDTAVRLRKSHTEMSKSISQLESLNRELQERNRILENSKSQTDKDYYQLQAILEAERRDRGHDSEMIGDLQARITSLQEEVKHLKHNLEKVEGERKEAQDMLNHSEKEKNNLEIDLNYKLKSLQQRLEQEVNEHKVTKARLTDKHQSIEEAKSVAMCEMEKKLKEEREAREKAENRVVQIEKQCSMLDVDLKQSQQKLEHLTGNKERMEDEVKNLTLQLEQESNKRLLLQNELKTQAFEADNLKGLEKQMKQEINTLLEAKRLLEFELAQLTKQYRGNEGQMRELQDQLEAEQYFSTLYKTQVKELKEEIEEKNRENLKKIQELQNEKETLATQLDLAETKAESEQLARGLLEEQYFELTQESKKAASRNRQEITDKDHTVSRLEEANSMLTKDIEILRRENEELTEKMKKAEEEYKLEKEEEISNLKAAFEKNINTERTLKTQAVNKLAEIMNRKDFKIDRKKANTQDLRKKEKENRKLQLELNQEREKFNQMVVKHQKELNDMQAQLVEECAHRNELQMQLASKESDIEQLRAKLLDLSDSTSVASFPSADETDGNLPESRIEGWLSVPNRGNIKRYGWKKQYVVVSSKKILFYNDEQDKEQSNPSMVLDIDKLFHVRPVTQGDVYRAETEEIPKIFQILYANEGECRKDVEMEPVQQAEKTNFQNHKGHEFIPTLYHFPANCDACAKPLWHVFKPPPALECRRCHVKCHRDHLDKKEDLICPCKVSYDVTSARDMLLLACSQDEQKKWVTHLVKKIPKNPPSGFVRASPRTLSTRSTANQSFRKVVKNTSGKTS
LIMK1, sequence (P53667 whole entry): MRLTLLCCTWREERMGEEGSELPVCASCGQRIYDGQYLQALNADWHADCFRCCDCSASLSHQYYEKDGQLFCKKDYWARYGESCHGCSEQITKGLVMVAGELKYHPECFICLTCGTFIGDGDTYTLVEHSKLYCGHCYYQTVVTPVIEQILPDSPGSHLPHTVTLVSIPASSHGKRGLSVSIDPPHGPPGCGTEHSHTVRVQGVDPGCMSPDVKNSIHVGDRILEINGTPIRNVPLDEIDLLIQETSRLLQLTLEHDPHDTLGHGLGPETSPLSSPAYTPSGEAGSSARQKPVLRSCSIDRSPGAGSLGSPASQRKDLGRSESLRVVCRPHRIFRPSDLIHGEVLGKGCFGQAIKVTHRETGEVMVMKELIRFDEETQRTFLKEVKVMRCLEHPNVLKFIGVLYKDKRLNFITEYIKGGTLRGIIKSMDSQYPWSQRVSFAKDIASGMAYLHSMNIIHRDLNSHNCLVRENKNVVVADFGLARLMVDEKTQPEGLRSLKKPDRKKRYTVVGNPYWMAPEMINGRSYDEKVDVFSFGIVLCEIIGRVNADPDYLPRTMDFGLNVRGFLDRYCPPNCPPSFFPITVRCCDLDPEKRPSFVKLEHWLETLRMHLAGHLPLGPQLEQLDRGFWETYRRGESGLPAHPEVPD

Regarding `Cc1c[nH]c2ncnc(C3=CC(C)N(C(=O)Nc4cccc(F)c4)C(C)C3)c12` (stereo not drawn) [Compound 57, N-(3-Fluorophenyl)-2,6-dimethyl-4-(5-methyl-7H-pyrrolo[2,3-d]pyrimidin-4-yl)-3,6-dihydropyridine-1(2H)-carboxamide], the Ki (as a rule, a dissociation constant, usually derived from enzyme kinetics or from competition with a known ligand) amounted to 46.6 nM on LIMK1 (Lanthascreen Eu binding assay) and 103 nM at LIMK2 (Lanthascreen Eu binding assay). Besides, the inhibition (usually the change of the read-out against control, counted positive when it falls) at 1 µM on ROCK1 (setting [4]) was 59%; at ROCK2 (setting [5]), 36%. The inhibition at 25 µM is 90.3% in assay [1] (setting [6]), 90.3% in assay [1] (setting [7]), 81% in assay [2] (setting [8]) and 93.3% in assay [3].
Turning to `Cc1c[nH]c2ncnc(C3=CC(C)N(C(=O)Nc4cccc(Cl)c4)C(C)C3)c12` (stereo not drawn) [Compound 58, N-(3-Chlorophenyl)-2,6-dimethyl-4-(5-methyl-7H-pyrrolo[2,3-d]pyrimidin-4-yl)-3,6-dihydropyridine-1(2H)-carboxamide], the inhibition at 1 µM on ROCK1 (setting [9]) came out at 34%; at ROCK2 (setting [10]) it was 32%. Further, the inhibition at 25 µM in assay [1] (setting [11]) is 91.4%; in assay [1] (setting [12]), 91.4%; in assay [2] (setting [13]), 77.3%.
Regarding `Cc1c[nH]c2ncnc(C3=CC(C)N(C(=O)Nc4cccc(Br)c4)C(C)C3)c12` (stereo not drawn) [Compound 59, N-(3-Bromophenyl)-2,6-dimethyl-4-(5-methyl-7H-pyrrolo[2,3-d]pyrimidin-4-yl)-3,6-dihydropyridine-1(2H)-carboxamide], the inhibition at 1 µM at ROCK1 (setting [9]) came to 34%; at ROCK2 (setting [10]), 40%. In addition, the inhibition at 25 µM was found to be 93.6% in assay [1] (setting [11]), 93.6% in assay [1] (setting [12]) and 74.7% in assay [2] (setting [13]).
Regarding `Cc1c[nH]c2ncnc(C3=CC(C)N(C(=O)Nc4cccc(Oc5ccccc5)c4)C(C)C3)c12` (stereo not drawn) [Compound 60, 2,6-Dimethyl-4-(5-methyl-7H-pyrrolo[2,3-d]pyrimidin-4-yl)-N-(3-phenoxyphenyl)-3,6-dihydro pyridine-1(2H)-carboxamide], the “% inhibition (ROCK1) 1 uM” value at ROCK1 was found to be 11%. The “% inhibition (ROCK2) 1 uM” value on ROCK2 stood at 7%. The “% inhibition Cofilin phosphorylation HeLa cells treated 2 h with 25 uM of inhibitor” value in assay [1] (HeLa cells, 25 uM) worked out at 94.2%. Besides, the “% inhibition of cofilin phosphorylation in HeLa cells (treatment 2 h, at 25 μM)” value in assay [1] (setting [14]) was determined as 94.2%. Further, the “% inhibition Cofilin phosphorylation MPNST88-14 cells treated 2 h with 25 uM of inhibitor” value in assay [2] (MPNST88-14 cells, 25 uM) amounted to 74.5%. In addition, the “% inhibition Cofilin phosphorylation MPNST90-8 cells treated 2 h with 25 uM of inhibitor” value in assay [3] is listed as 81.1%.
In the case of `O=C(Nc1cccc(Cl)c1)N1CC=C(c2ncnc3[nH]c4c(c23)CCCC4)CC1` [Compound 114, N-(3-Chlorophenyl)-4-(6,7,8,9-tetrahydro-5H-pyrimido[4,5-b]indol-4-yl)-3,6-dihydropyridine-1(2H)-carboxamide], the Ki at LIMK1 (Lanthascreen Eu binding assay) came out at 9.98 nM; on LIMK2 (Lanthascreen Eu binding assay) it was 25.5 nM. In addition, the inhibition at 1 µM on ROCK1 (setting [9]) was 4%; on ROCK2 (setting [10]), 8%. The inhibition at 25 µM in assay [1] (setting [6]) stood at 89.3%; in assay [1] (setting [7]) it was 89.3%; in assay [2] (setting [8]), 74.7%.
For the compound `CN(C)C(=O)Oc1cccc(NC(=O)N2CC=C(c3ncnc4[nH]c5c(c34)CCC5)CC2)c1` [Compound 122, 3-(4-(5,6,7,8-Tetrahydrocyclopenta[4,5]pyrrolo[2,3-d]pyrimidin-4-yl)-1,2,3,6-tetrahydropyridine-1-carboxamido)phenyl dimethyl carbamate], the Ki came out at 7.11 nM on LIMK1 (Lanthascreen Eu binding assay) and 4.02 nM at LIMK2 (Lanthascreen Eu binding assay). Further, the “% inhibition (ROCK1) 1 uM” value at ROCK1 amounted to 4%. The “% inhibition (ROCK2) 1 uM” value on ROCK2 turned out to be 14%. Also, in assay [1] (HeLa cells, 25 uM), the “% inhibition Cofilin phosphorylation HeLa cells treated 2 h with 25 uM of inhibitor” value worked out at 81.3%. In addition, the “% inhibition of cofilin phosphorylation in HeLa cells (treatment 2 h, at 25 μM)” value in assay [1] (setting [14]) stood at 81.3%. Further, in assay [3], the “% inhibition Cofilin phosphorylation MPNST90-8 cells treated 2 h with 25 uM of inhibitor” value amounted to 65.6%.
Take `O=C(Nc1cccc(Oc2ccccc2)c1)N1CC=C(c2ncnc3[nH]c4c(c23)CCC4)CC1` [Compound 125, N-(3-Phenoxyphenyl)-4-(5,6,7,8-tetrahydrocyclopenta[4,5]pyrrolo[2,3-d]pyrimidin-4-yl)-3,6-dihydropyridine-1(2H)-carboxamide]: the inhibitory constant (Ki) is 29 nM at LIMK1 (Lanthascreen Eu binding assay) and 28.5 nM at LIMK2 (Lanthascreen Eu binding assay). Also, the inhibition at 1 µM on ROCK1 (setting [4]) was 10%; at ROCK2 (setting [5]), -2%. For the same compound, the inhibition at 25 µM in assay [1] (setting [6]) worked out at 81.4%; in assay [1] (setting [7]) it was 81.4%; in assay [2] (setting [8]) it was 80.8%; in assay [3], 76.1%.
Regarding `O=C(Nc1cccc(F)c1)N1CC=C(c2ncnc3[nH]c4c(c23)CSCC4)CC1` [Compound 154, N-(3-Fluorophenyl)-4-(5,7,8,9-tetrahydrothiopyrano[3′,4′:4,5]pyrrolo[2,3-d]pyrimidin-4-yl)-3,6-dihydropyridine-1(2H)-carboxamide], the results for the inhibition constant (Ki) at LIMK1 (Lanthascreen Eu binding assay) and at LIMK2 (Lanthascreen Eu binding assay) were 52.7 nM and 78.6 nM, respectively. In addition, the inhibition at 1 µM on ROCK1 (setting [4]) was found to be 5%; on ROCK2 (setting [5]) it was 7%. Besides, the inhibition at 25 µM in assay [1] (setting [7]) is 66.9%; in assay [2] (setting [8]), 57.7%.
In the case of `O=C(Nc1cccc(Cl)c1)N1CC=C(c2ncnc3[nH]c4c(c23)CSCC4)CC1` [Compound 155, N-(3-Chlorophenyl)-4-(5,7,8,9-tetrahydrothiopyrano [3′,4′:4,5]pyrrolo[2,3-d]pyrimidin-4-yl)-3,6-dihydropyridine-1(2H)-carboxamide], the values for the Ki at LIMK1 (Lanthascreen Eu binding assay) and at LIMK2 (Lanthascreen Eu binding assay) were 94.1 nM and 94.2 nM, respectively. For the same compound, the inhibition at 1 µM on ROCK1 (setting [9]) worked out at 10%; at ROCK2 (setting [10]), 14%. For the same compound, the inhibition at 25 µM came to 72.8% in assay [1] (setting [7]) and 57.7% in assay [2] (setting [8]).
Take `O=C(Nc1cccc(Br)c1)N1CC=C(c2ncnc3[nH]c4c(c23)CSCC4)CC1` [Compound 156, N-(3-Bromophenyl)-4-(5,7,8,9-tetrahydrothiopyrano [3′,4′:4,5]pyrrolo[2,3-d]pyrimidin-4-yl)-3,6-dihydropyridine-1(2H)-carboxamide]: the Ki was determined as 41.4 nM at LIMK1 and 31.5 nM on LIMK2. Moreover, the inhibition at 1 µM at ROCK1 (setting [9]) came out at 3%; on ROCK2 (setting [10]) it was 15%. For the same compound, the results for the inhibition at 25 µM in assay [1] (setting [11]) and in assay [2] (setting [13]) were 68.2% and 61.6%, respectively.
As for `O=C(Nc1cccc(F)c1)N1CC=C(c2ncnc3[nH]c4c(c23)COCC4)CC1` [Compound 157, N-(3-Fluorophenyl)-4-(5,7,8,9-tetrahydropyrano[3′,4′:4,5]pyrrolo[2,3-d]pyrimidin-4-yl)-3,6-dihydropyridine-1(2H)-carboxamide], the results for the Ki at LIMK1 (Lanthascreen Eu binding assay) and on LIMK2 (Lanthascreen Eu binding assay) were 172 nM and 319 nM, respectively. Moreover, the inhibition at 1 µM was 7% at ROCK1 (setting [4]) and -1% at ROCK2 (setting [5]). Besides, the inhibition at 25 µM in assay [1] (setting [6]) is 79.5%; in assay [1] (setting [7]), 79.5%; in assay [2] (setting [8]) it was 56.5%.
Consider `O=C(Nc1cccc(Cl)c1)N1CC=C(c2ncnc3[nH]c4c(c23)COCC4)CC1` [Compound 158, N-(3-Chlorophenyl)-4-(5,7,8,9-tetrahydropyrano[3′,4′:4,5]pyrrolo[2,3-d]pyrimidin-4-yl)-3,6-dihydropyridine-1(2H)-carboxamide], for which the values for the Ki on LIMK1 (Lanthascreen Eu binding assay) and on LIMK2 (Lanthascreen Eu binding assay) were 65.6 nM and 93 nM, respectively. Besides, the inhibition at 1 µM on ROCK1 (setting [9]) amounted to 2%; on ROCK2 (setting [10]) it was 1%. The results for the inhibition at 25 µM in assay [1] (setting [7]) and in assay [2] (setting [8]) were 65.3% and 59.8%, respectively.
Regarding `O=C(Nc1cccc(Br)c1)N1CC=C(c2ncnc3[nH]c4c(c23)COCC4)CC1` [Compound 159, N-(3-Bromophenyl)-4-(5,7,8,9-tetrahydropyrano[3′,4′:4,5]pyrrolo[2,3-d]pyrimidin-4-yl)-3,6-dihydropyridine-1(2H)-carboxamide], the Ki on LIMK1 came to 51 nM; at LIMK2, 51.5 nM. Besides, the inhibition at 1 µM was 11% at ROCK1 (setting [9]) and 3% at ROCK2 (setting [10]). Moreover, the inhibition at 25 µM came out at 70.3% in assay [1] (setting [11]) and 64.3% in assay [2] (setting [13]).
As for `Cc1c[nH]c2ncnc(C3=CCN(C(=O)Nc4cccc(-c5cccc(OCCCNS(C)(=O)=O)c5)c4)CC3)c12` [Compound 175, N-[3-[3-[3-(methanesulfonamido)propoxy]phenyl]phenyl]-4-(5-methyl-7H-pyrrolo[2,3-d]pyrimidin-4-yl)-3,6-dihydro-2H-pyridine-1-carboxamide], the values for the Ki on LIMK1 (Lanthascreen Eu binding assay) and at LIMK2 (Lanthascreen Eu binding assay) were 12 nM and 9.66 nM, respectively. Also, the figures for the inhibition at 1 µM at ROCK1 (setting [4]) and at ROCK2 (setting [5]) were 43% and 36%, respectively. For the same compound, the inhibition at 25 µM in assay [1] (setting [7]) was 98.1%.
`Cc1c[nH]c2ncnc(C3=CCN(C(=O)Nc4cccc(OCC5CCC(F)(F)CC5)c4)CC3)c12` [Compound 191, N-(3-((4,4-difluorocyclohexyl)methoxy)phenyl)-4-(5-methyl-7H-pyrrolo[2,3-d]pyrimidin-4-yl)-3,6-dihydropyridine-1(2H)-carboxamide]: the results for the Ki at LIMK1 (Lanthascreen Eu binding assay) and on LIMK2 (Lanthascreen Eu binding assay) were 85.5 nM and 217 nM, respectively. The inhibition at 1 µM worked out at 72% on ROCK1 (setting [4]) and 57% on ROCK2 (setting [5]). Also, the inhibition at 25 µM in assay [1] (setting [6]) came out at 87%.
